Assay results taken from US11427869B2, “T cell balance gene expression, compositions of matters and methods of use thereof” (THE BROAD INSTITUTE, INC., priority 2015, dated 2022).

How the values were obtained:
Format in all cases: cell-based, mouse
WT Th17 cells = assay: Nanostring nCounter Th17 codeset (312 genes), SFA- or control-treated WT Th17 cells; conditions: WT Th17 cells + SFA
Description: Applicants studied the contribution of lipid saturation to Th17 cell pathogenicity. […] Applicants analyzed the expression of a 312 gene signature of Th17 cell differentiation and function (Yosef et al., 2013) in SFA- or control-treated WT Th17 cells and in PUFA- or control-treated CD5L−/− Th17 cells differentiated with TGF-81+IL-6.
T cell differentiation culture. Naïve CD4+CD44−CD62L+CD25− T cells or Effector memory CD4+CD44+CD62L− were sorted using BD FACSAria sorter and activated with plate-bound anti-CD3 and anti-CD28 antibodies (both at 2 μg/ml) in the presence of cytokines at a concentration of 2.5×10^5 cells/ml. For Th17 differentiation: 2 ng/ml of rhTGFβ1, 2 ng/ml of rhTGFβ3, 25 ng/ml rmIL-6, 20 ng/ml rmIL-18 (all from Miltenyi Biotec) and 20 ng/ml rmIL-23 (R & D systems) were used at various combinations as specified in figures. For Th1 differentiation, 20 ng/ml rmIL-12 (R & D systems); for Th2 differentiation 20 ng/ml rmIL-4 (Miltenyi Biotec); for iTreg differentiation, 2.5 ng/ml of rhTGFβ1 were used (Miltenyi Biotec). For differentiation experiments, cells were harvested at 48 hours. For restimulation experiments, cells were differentiated for 48 hours and resuspended in fresh media with no additional cytokines for 48-72 hours. Cells were re-stimulated with PMA/ionomycin for four hours before analysis for cytokines by intracellular cytokine staining. For experiments with exogenous fatty acid, fatty acids were purchased and resuspended first with serum-free media containing BSA prior being added to culture.
Nanostring nCounter. Nanostring nCounter platform (NanoString Technologies) is used to measure the number of RNA transcripts in RNA samples (FIG. 16I, FIG. 18D). A codeset containing 312 signature genes of Th17 cell differentiation and function as well as 4 additional house-keeping genes were custom-made (Yosef et al., 2013) and used in these experiments. Experimental procedures as detailed by the manufacturer is strictly followed.

Th17 cells [1] = assay: qPCR of gene expression (cyp51, sc4mol, pathogenicity signature) in Th17 cells with exogenous fatty acid
Th17 cells [2] = assay: Flow cytometry and intracellular cytokine staining of T cells; conditions: WT Th17 cells differentiated with TGF-β1+IL-6 and expanded using IL-23 with fatty acid
Description: WT, CD5L−/− and Rorγt−/− Th17 cells were differentiated with TGF-1+IL-6 for 96h. […] Three independent experiments were performed. […] (FIG. 18E) Naïve WT T cells were activated without polarizing cytokines (Th0) and infected with retrovirus expressing Rorγt in the presence of control-RV or CD5L-RV with or without FF-MAS (5 uM) as a source of Rorγt ligand. Each dot represents an independent infection. (FIG. 18F) WT or CD5L−/− naïve cells were differentiated with TGF-β1+IL-6. At 48h, cells were replated in fresh media with either control or FF-MAS (5 uM) as a source of Rorγt ligand. Cells were harvested for FACS analysis 72h later.
Flow cytometry and intracellular cytokine staining. Sorted naïve T cells were stimulated with phorbol 12-myristate 13-acetate (PMA) (50 ng/ml, Sigma-aldrich), ionomycin (1 μg/ml, Sigma-aldrich) and a protein transport inhibitor containing monensin (Golgistop) (BD Biosciences) for 4 h before detection by staining with antibodies.

[3] = Th17 cells differentiated with TGF-β1+IL-6

## CCCCCCCCCCCCCCCC(=O)O [SFA, palmitic acid]
WT Th17 cells
  Irf7 expression (Nanostring), normalized to WT: 0.54
  Irf8 expression (Nanostring), normalized to WT: 0.99
  Itga3 expression (Nanostring), normalized to WT: 0.50
  Jak3 expression (Nanostring), normalized to WT: 0.91
  Jun expression (Nanostring), normalized to WT: 1.11
  Kat2b expression (Nanostring), normalized to WT: 0.69
  Klf9 expression (Nanostring), normalized to WT: 0.68
  Klf10 expression (Nanostring), normalized to WT: 0.91
  Klrd1 expression (Nanostring), normalized to WT: 0.92
  Lad1 expression (Nanostring), normalized to WT: 0.91
  Lgals3bp expression (Nanostring), normalized to WT: 0.58
  Litaf expression (Nanostring), normalized to WT: 1.48
  Lpxn expression (Nanostring), normalized to WT: 0.85
  Maf expression (Nanostring), normalized to WT: 0.79
  Maff expression (Nanostring), normalized to WT: 0.99
  Map3k5 expression (Nanostring), normalized to WT: 0.80
  Mbnl3 expression (Nanostring), normalized to WT: 0.71
  Mina expression (Nanostring), normalized to WT: 0.72
  Mt1 expression (Nanostring), normalized to WT: 1.56
  Mt2 expression (Nanostring), normalized to WT: 1.33
  Nfkbie expression (Nanostring), normalized to WT: 0.69
  Nkg7 expression (Nanostring), normalized to WT: 0.62
  Notch2 expression (Nanostring), normalized to WT: 0.78
  Oas2 expression (Nanostring), normalized to WT: 1.28
  Peli2 expression (Nanostring), normalized to WT: 0.88
  Plac8 expression (Nanostring), normalized to WT: 1.04
  Plagl1 expression (Nanostring), normalized to WT: 2.19
  Pmepa1 expression (Nanostring), normalized to WT: 0.74
  Pou2af1 expression (Nanostring), normalized to WT: 1.30
  Prkd3 expression (Nanostring), normalized to WT: 0.73
  Pstpip1 expression (Nanostring), normalized to WT: 1.16
  Rab33a expression (Nanostring), normalized to WT: 1.23
  Rasgrp1 expression (Nanostring), normalized to WT: 0.75
  Rel expression (Nanostring), normalized to WT: 1.20
  Rela expression (Nanostring), normalized to WT: 0.70
  Rfk expression (Nanostring), normalized to WT: 0.79
  Rorc expression (Nanostring), normalized to WT: 1.25
  Sap30 expression (Nanostring), normalized to WT: 1.23
  Sema7a expression (Nanostring), normalized to WT: 1.44
  Serpinb1a expression (Nanostring), normalized to WT: 0.56
  Ski expression (Nanostring), normalized to WT: 0.88
  Slc6a6 expression (Nanostring), normalized to WT: 0.79
  Smad3 expression (Nanostring), normalized to WT: 0.81
  Socs3 expression (Nanostring), normalized to WT: 0.78
  Spp1 expression (Nanostring), normalized to WT: 1.10
  Spry1 expression (Nanostring), normalized to WT: 1.57
  Stat4 expression (Nanostring), normalized to WT: 0.77
  Stat5b expression (Nanostring), normalized to WT: 0.82
  Stat6 expression (Nanostring), normalized to WT: 0.73
  Sult2b1 expression (Nanostring), normalized to WT: 0.38
  Tal2 expression (Nanostring), normalized to WT: 1.15
  Tcf4 expression (Nanostring), normalized to WT: 0.72
  Tgfb1 expression (Nanostring), normalized to WT: 0.83
  Tgfb3 expression (Nanostring), normalized to WT: 0.88
  Tgfbr3 expression (Nanostring), normalized to WT: 0.58
  Tgm2 expression (Nanostring), normalized to WT: 0.78
  Tmem229b expression (Nanostring), normalized to WT: 0.69
  Tnfrsf4 expression (Nanostring), normalized to WT: 1.28
  Tnip2 expression (Nanostring), normalized to WT: 0.90
  Trat1 expression (Nanostring), normalized to WT: 0.61
  Trim25 expression (Nanostring), normalized to WT: 0.89
  Trps1 expression (Nanostring), normalized to WT: 0.84
  Tsc22d3 expression (Nanostring), normalized to WT: 1.06
  Ubiad1 expression (Nanostring), normalized to WT: 0.94
  Vav3 expression (Nanostring), normalized to WT: 0.56
  Xrcc5 expression (Nanostring), normalized to WT: 0.93
  nrp1 expression (Nanostring), normalized to WT: 0.74
  pou2f1 expression (Nanostring), normalized to WT: 1.34
Th17 cells [1]; CD5L−/− Th17 cells (TGF-β1+IL-6), fatty acid 25 uM added at 48h, analyzed at 96h
  expression of cyp51 and sc4mol mRNA: modest effect
Th17 cells [1]; [3]
  Il22 expression (qPCR): increased
  effector molecule expression of the pathogenicity signature (Il10, Il23r, Ccl5, Csf2, Lag3; qPCR): reciprocally regulated
Th17 cells [2]
  IL-17 and IL-23R expression: only slightly increased
